Source: PMC11887451, “Leveraging Immunogenic Cell Death to Enhance the Immune Response against Malignant Pleural Mesothelioma Tumors” (Journal of the American Chemical Society, 2025)

Key:
[1] = system: human malignant mesothelioma cell line JU77; assay: MTT cytotoxicity assay, 72 h, JU77; format: cell-based; settings: exposure time 72 h
From the text: (§1) Human malignant mesothelioma cancer cell lines JU77 and LO68 were obtained from Cell Bank Australia (Children's Medical Research Institute, Westmead, Australia). Mouse malignant mesothelioma cancer cell line AB12, human nonmalignant mesothelioma cancer cell line Met5A (mesothelial cells), mouse macrophage cell line J774 and human monocytic cell line THP-1 were obtained from American Type Culture Collection (ATCC) (Rockville, MD, USA). Human malignant mesothelioma cell lines VMC23 (epithelial), Meso82 (sarcomatous), Meso92 (biphasic), were kindly provided by Prof. Walter Berger (Medical University of Vienna). All cells except for J774 were cultured in RPMI and J774 cells were cultured in DMEM. Both types of media were supplemented with 10% FBS and 1% penicillin-streptomycin (10,000 U/mL). Cells were grown in tissue culture flasks (75 cm2 and 25 cm2, SPL Life Sciences Co., Ltd., Korea). All cell lines were grown at 37 °C in a humidified atmosphere of 95% air and 5% CO 2 and passaged when they reached 80–90% confluency. All Au stock solutions were prepared in 1% DMSO in the respected medium, ensuring that cell viability was not inhibited.
(§2) The cytotoxicity of compounds was determined using an MTT colorimetric test. The cells were harvested from culture flasks by trypsinization and seeded into Cellstar 96 -well microculture plates (Greiner Bio -One) at the seeding density of 6000 cells per well (6 × 10^4 cells/mL). After
(§3) the cells were allowed to resume exponential growth for 16 h, they were exposed to drugs at
(§4) different concentrations in media for 72 h. The drugs were diluted in a complete medium at the desired concentration added to each well (100 μL) and serially diluted in other wells. After exposure for 72 h, the media was replaced with MTT in media (5 mg/mL, 100 μL/well) and
(§5) incubated for an additional 50 min. Subsequently, the medium was aspirated, and the purple formazan crystals formed in viable cells were dissolved in DMSO (100 μL/well). Optical densities were measured at 570 nm using a BioTek Synergy H1 microplate and MultiskanTM SkyHigh plate readers. The quantity of viable cells was expressed in terms of treated/control (T/C) values in comparison to untreated control cells, and 50% inhibitory concentrations (IC 50) were calculated from concentration-effect curves by interpolation. An evaluation was based on means from at least three independent experiments, each comprising three replicat es per

[2] = system: calreticulin (CRT) in AB12 cells; settings: AB12, 5 × IC50, 120 min
Experimental: emission was detected at 525/40 nm for FITC (CRT).
Confocal microscopy experiments
AB12 cells were seeded into confocal dishes (Biosharp) at a density of 3 × 10^5 cells/dish (1
mL per dish). The cells were allowed to resume exponential growth for 16 h. Afterwards, the
cells were incubated with a fresh medium containing compounds at their respective 5 × IC50
concentrations for 2 h at 37°C. After the treatment, the dishes were washed with 1 ml of PBS,
fixed in 4% paraformaldehyde in PBS at r. t. for 20 min and washed twice with 1 mL of PBS.
The dishes were then incubated with CRT antibody conjugated with Alexa Fluor 488 (1:200 in
the dishes were incubated with Wheat Germ Agglutinin conjugated with Alexa Fluor 633 dye
(W21404, Invitrogen) at r. t. in darkness for 30 min, washed with 1 mL of PBS, stained with
propidium iodide (PI) for 10 min at r. t. in darkness and washed with 1 mL of PBS. Samples
were stored in 1 mL of PBS. The confocal images were acquired by Laser Confocal Scanning

[3] = system: AB12 cells in BALB/c mice; assay: In vivo vaccination model; design: species or system mouse; settings: within the first 30 days after vaccination, n = 8
From the text: Initially, AB12 cells underwent pretreatment with varying concentrations of Au(III) complexes, and the induced cell death and release of desired ICD biomarkers were monitored over time. Upon reaching a cell death rate of 65%–75%, BALB/c mice (n = 8) were subcutaneously injected in the left flank with a vaccine containing 3 × 10^5 of live/dying/dead cells, while the vehicle group received injections of PBS. Seven days postvaccine administration, the immunized mice were rechallenged by inoculating the same number of live AB12 cells (without any prior treatment) into the right flanks (Figure 5A). The progression of tumor growth on the right flanks was monitored using a caliper.
AB12 cells were seeded into Cellstar 24-well plates (Greiner Bio-One) at a density of 1.8 × 104
cells/ml (1 ml per well) and allowed to grow exponentially for 16 hours. Subsequently, the
medium was replaced with 1 ml of fresh medium containing compounds of interest at
predetermined concentrations (with a minimum of 4 wells per treatment condition). These
concentrations were selected to induce 65-75% cell death.
Subsequently, the culture
medium was aspirated, and the cells were washed twice with 1 mL of PBS. The cell
concentration was adjusted to 3 × 10^5 cells (including dead/dying/live cells) per 100 μL of PBS,
and the ratio of dead/live cells was assessed using the Invitrogen Countess 3 cell counter. In
the subsequent experiment, BALB/c mice (8 mice per group) were subcutaneously injected
with 0.1 mL of AB12 cells (3 × 10^5 cells/mL, including dead/dying/live cells) or the
corresponding vehicle (PBS) on the left flank. Tumor growth was monitored daily.
After 7 days, the mice were subcutaneously injected with
0.1 mL of AB12 cells (3 × 10^5 cells/mL, live cells) on the right flank. Regular measurements
of body weights and tumor sizes were taken. Mice that developed palpable tumors were
euthanized for further analysis.

[4] = system: patient-derived Meso92 cell line (biphasic MPM); assay: MTT cytotoxicity assay, 72 h, Meso92; format: cell-based, human; settings: exposure time 72 h
From the text: Cell lines and culture conditions
(§6) Mouse malignant mesothelioma cancer cell line AB12, human nonmalignant mesothelioma cancer cell line Met5A (mesothelial cells), mouse macrophage cell line J774 and human monocytic cell line THP-1 were obtained from American Type Culture Collection (ATCC) (Rockville, MD, USA). Human malignant mesothelioma cell lines VMC23 (epithelial), Meso82 (sarcomatous), Meso92 (biphasic), were kindly provided by Prof. Walter Berger (Medical University of Vienna). All cells except for J774 were cultured in RPMI and J774 cells were cultured in DMEM. Both types of media were supplemented with 10% FBS and 1% penicillin-streptomycin (10,000 U/mL). Cells were grown in tissue culture flasks (75 cm2 and 25 cm2, SPL Life Sciences Co., Ltd., Korea). All cell lines were grown at 37 °C in a humidified atmosphere of 95% air and 5% CO 2 and passaged when they reached 80–90% confluency. All Au stock solutions were prepared in 1% DMSO in the respected medium, ensuring that cell viability was not inhibited. The Au concentration in the stock solutions was confirmed through inductively coupled plasma optical emission spectrometry. The stock solution of pemetrexed (10 mM) was prepared in Milli -Q water.
Inhibition of c ell viability assay
as §2, §3, §4, §5

[5] = system: murine malignant mesothelioma cell line AB12; assay: MTT cytotoxicity assay, 72 h, AB12; format: cell-based, mouse; settings: exposure time 72 h
From the text: as §1, §2, §3, §4, §5

[6] = system: human nonmalignant mesothelioma cell line Met5A; assay: MTT cytotoxicity assay, 72 h, Met5A; format: cell-based; settings: exposure time 72 h
From the text: Cell lines and culture conditions
as §6
Inhibition of c ell viability assay
as §2, §3, §4, §5

[7] = system: AB12 cells phagocytosed by J774 macrophages; assay: Phagocytosis assay, flow cytometry; format: cell-based, mouse; settings: AB12 treated 100 min at 5 × IC50 (72 h), 16 h with J774 macrophages
Experimental: page 21: incubated for an additional 50 min. Subsequently, the medium was aspirated, and the purple formazan crystals formed in viable cells were dissolved in DMSO (100 μL/well). Optical densities were measured at 570 nm using a BioTek Synergy H1 microplate and MultiskanTM SkyHigh plate readers. The quantity of viable cells was expressed in terms of treated/control (T/C) values in comparison to untreated control cells, and 50% inhibitory concentrations (IC 50) were calculated from concentration-effect curves by interpolation. An evaluation was based on means from at least three independent experiments, each comprising three […] concentration level. For macrophage analyses, the acute monocytic leukemia -derived THP-1 cell line (ATCC) was used as a model. 1 × 104 THP-1 cells were seeded per well in 96-well plates in RPMI-1640 with 10% FCS and treated for 24 h with 75 nM phorbol 12-myristate 13-acetate (PMA, Sigma- Aldrich) to induce M0 macrophage differentiation. After the differentiation period, PMA was replaced by fresh culture medium to recover for 2h. Afterwards increasing concentrations of 1G, 5A, 5B and 5G were added for a 72-h continuous drug exposure assay. In parallel, the […] were allowed to attach for 24 h. Gold compounds were added to the cells as described for the THP-1 model above. After the incubation period of 72 h, cell viability was determined by an MTT-based assay (EU4U, Biomedica) following the instructions of the manufacturer. DMSO had not impact on the cell viability at the concentrations used. Flow cytometry experiments Phagocytosis assay […] with RPMI, centrifuged (300 × g, 5 min) and labelled with CellTracker Red CMTPX Dye (0.72 μM for 5 × 10^5 cells) at 37°C for 30 minutes in 1 ml of serum -free RPMI. Following S21 page 22: centrifugation of the cells (300 × g, 5 min), 5 ml of fresh RPMI was introduced, and the cells were seeded at a density of 5 x 10^5 cells per well into Cellstar 6-well plates (Greiner Bio-One) (1 ml per well). J774 macrophages (70-80% confluence in a T75 flask) were detached by scraping, centrifuged (300 × g, 5 min). The medium was substituted with 1 ml of DMEM containing CellTracker Green CMFDA (1 μM) and the J774 macrophages were stained at 37°C for 30 minutes. Following centrifugation of the J774 macrophages (300 × g, 5 min), 5 ml of fresh DMEM was introduced, and the macrophages were seeded into a 100 cm2 petri dish (SPL Life Sciences, Korea). After 24 h, the media in AB12 cells was replaced with 1 ml of fresh […] for 100 minutes. After removing the drug-containing media, the cells were trypsinized (0.5 ml), neutralized with 1 ml of RPMI, centrifuged (300 × g, 5 min) and counted. From each sample, […] cells into 6-well plates. AB12 cells and J774 macrophages were co-incubated for 16 h at 37°C and 5% CO2, detached by scraping, centrifuged (300 × g, 5 min), and the pellets were resuspended in PBS for immediate analysis using a CytoFLEX Flow Cytometer (Beckman Coulter, USA). The percentage of phagocytosis was determined by calculating the number of double-positive macrophages (Q2) over the total number of macrophages (Q2 + Q3). […] Annexin V/PI assay AB12 cells were seeded into Cellstar 6-well plates (Greiner Bio-One) at a density of 5 × 10^5 cells/well (1 ml per well). […] The medium was removed and cells were washed with PBS (2 × 1 mL). Afterwards the cells were […] S22

[8] = system: human malignant mesothelioma cell line LO68; assay: MTT cytotoxicity assay, 72 h, LO68; format: cell-based; settings: exposure time 72 h
[9] = Aqueous stability by RP-HPLC in 1:1 DMSO:H2O over 72 h; format: physicochemical; settings: room temperature
Experimental: The aqueous stability of the Au(III)–DTC complexes was assessed by monitoring their RP-HPLC profiles in a 1:1 DMSO:H2O mixture at room temperature over a 3-day period (Supplementary Figures 112–146).
Determination of the purity of cyclometalated Au( III) complexes was performed using analytical HPLC on a Shimadzu Prominence System equipped with a DGU -20A3 Degasser, two LC-20AD Liquid Chromatography Pump, a SPD-20A UV/Vis Detector and a Shim Pack GVP-ODS 2.0 mm 18 column ([…], 120Å, 250 mm × 4.60 mm i.d.). The analysis was conducted at r.t. with a flow rate of 1.0 mL/min and detection at 254 and 280 nm. Mobile phase A was H2O + 0.1% Trifluoroacetic acid (TFA) while mobile phase B is ACN + 0.1% TFA. The gradient program parameters were as follows: mobil e phase B was increased from 30 to 95% over 30 min. 95% mobile phase B was maintained for 10 min, 95 to 30% over 5 min, and finally returned to 30% for 10 min for the next analysis. LogP values of the complexes were calculated based on the HPLC retention times derived from the calibration standard curve. The calibration standard curve was established using 2-butanone, phenylacetonitrile, anisole, ethyl benzoate, benzophenone, diphenyl ether and triphenylamine. To conduct an aqueous stability study, the HPLC profiles of the sample stock solutions were diluted to a 1:1 ratio of DMSO to […]
water. […]

[10] = system: patient-derived VMC23 cell line (epithelioid MPM); assay: MTT cytotoxicity assay, 72 h, VMC23; format: cell-based, human; settings: exposure time 72 h
[11] = system: patient-derived Meso84 cell line (sarcomatoid MPM); assay: MTT cytotoxicity assay, 72 h, Meso84; format: cell-based, human; settings: exposure time 72 h
From the text: as §1, §2, §3, §4, §5

[12] = system: calreticulin (CRT) in AB12 cells; assay: CRT detection, flow cytometry; format: cell-based, mouse; settings: AB12, 5 × IC50 (72 h), 120 min
Experimental: page 23: concentrations for 100 min at 37 °C. After the treatment, the supernatant was collected in 2 mL microtubes, centrifuged (300 × g, 5 min) and the media was removed. The adherent cells were then trypsinized with 500 μL of trypsin at 37 °C for 5 min. Next, 1 mL of medium was added to neutralize trypsin and the resulting cell suspension was combined with the supernatant. The wells were washed with 200 μL of PBS, which was also combined with the supernatant. The combined solutions were centrifuged (300 × g, 5 min), and the resulting pellets were washed with PBS (2 × 1 mL) and resuspended in 200 μL of Annexin V binding buffer. […] Cell death was evaluated by flow cytometry using a CytoFLEX Flow Cytometer equipped with a 488 nm laser and a 638 nm laser (Beckman Coulter, Brea, CA, USA). The cells were excited by the 488 nm laser, and fluorescence emissions were detected at 525/40 nm for FITC (Annexin V) and at 610/20 nm for ECD (PI). […] The percentage of necrosis was determined by calculating the sum of cells in Q1 and Q2. […] Next, cells were incubated with CRT antibody conjugated with AlexaFluor S23 page 24: 488 (62304S, Cell Signaling Technology) at 4 °C overnight, washed twice with PBS, reconstituted in 500 µL of PBS and analyzed by flow cytometry using a CytoFLEX Flow Cytometer equipped with a 488 nm laser and a 638 nm laser (Beckman Coulter, Brea, CA, USA). […]

SMILES | chromatographic logP (physchem) | IC50 [1] | CRT translocation, confocal microscopy [2] | mice that developed tumors after vaccination [3] | IC50 [4] | IC50 [5] | IC50 [6] | phagocytosis rate [7] | IC50 [8] | hydrolysis over the 72-h period [9] | minor RP-HPLC peak, share of the total area after 24 h ([9]; 24 h) | minor RP-HPLC peak, share of the total area after 72 h ([9]; 72 h) | IC50 [10] | IC50 [11] | CRT expression (in words) [12] | phagocytosis / ICD response (in words) [7]
COc1cccc2c1C(=O)c1c(O)c3c(c(O)c1C2=O)C[C@@](O)(C(=O)CO)C[C@@H]3O[C@H]1C[C@H](N)[C@H](O)[C@H](C)O1 [doxorubicin] | 0.68 | – | – | – | – | – | – | – | – | – | – | – | – | – | – | –
CCCC[N+](CCCC)=C1[S][Au-]2([S]1)[c]1ccccc1C(OC)c1cccc[n+]12.F[P-](F)(F)(F)(F)F (racemic) [4C] | – | 1.6 ± 0.1 µM | translocation of CRT to the plasma membrane | ≈ 50% | 4.5 ± 0.8 µM | 3.1 ± 0.4 µM | 3 ± 0.7 µM | 37% ± 12% | 3.1 ± 0.3 µM | less than 10% | 2% | 8% | 2.5 ± 0.2 µM | 2.7 ± 0.8 µM | – | –
N.N.[Cl][Pt][Cl] [Cisplatin, cisplatin, reference compound] | – | 4.2 ± 0.5 µM | – | – | 4 ± 0.9 µM | 4.5 ± 0.8 µM | 2 ± 0.5 µM | – | 20 ± 6 µM | – | – | – | 3.6 ± 1 µM | 17 ± 2 µM | no changes in CRT expression | failed to initiate any ICD response
